Paper PMC5218480 (PLoS ONE, 2017)

Test system: MV-4-11 cells
Assay: Gene expression microarray analysis (Affymetrix PrimeView) and GSEA
Assay type: cell-based, human
Parameters: RFU PODN (11730768_x_at) / Fold change /veh PODN (11730768_x_at) / RFU LINC00158 (11744669_a_at) / Fold change /veh LINC00158 (11744669_a_at) / RFU DUSP10 (11751237_a_at) / Fold change /veh DUSP10 (11751237_a_at) / RFU ID3 (11757404_x_at) / Fold change /veh ID3 (11757404_x_at) / RFU PLEKHG5 (11737974_s_at) / Fold change /veh PLEKHG5 (11737974_s_at) / RFU LRRC4B (11730491_at) / Fold change /veh LRRC4B (11730491_at) / RFU GIMAP4 (11747438_a_at) / Fold change /veh GIMAP4 (11747438_a_at) / RFU KRT8 (11758183_x_at) / Fold change /veh KRT8 (11758183_x_at) / RFU CNN1 (11734310_a_at) / Fold change /veh CNN1 (11734310_a_at) / RFU VPS37D (11726825_at) / Fold change /veh VPS37D (11726825_at) / RFU C10orf10 (11716522_x_at) / Fold change /veh C10orf10 (11716522_x_at) / RFU KIR2DL2 /// KIR2DL4 /// KIR2DL5A /// KIR2DL5B /// KIR2DS1 /// KIR2DS2 /// KIR2DS3 /// KIR2DS4 /// KIR3DL3 /// KIR3DL3 /// KIR3DS1 (11738374_at) / Fold change /veh KIR2DL2 /// KIR2DL4 /// KIR2DL5A /// KIR2DL5B /// KIR2DS1 /// KIR2DS2 /// KIR2DS3 /// KIR2DS4 /// KIR3DL3 /// KIR3DL3 /// KIR3DS1 (11738374_at) / RFU C1QL1 (11718748_at) / Fold change /veh C1QL1 (11718748_at) / RFU TMPRSS4 (11747572_a_at) / Fold change /veh TMPRSS4 (11747572_a_at) / RFU HAMP (11756126_x_at) / Fold change /veh HAMP (11756126_x_at) / RFU RNFT2 (11725882_a_at) / Fold change /veh RNFT2 (11725882_a_at) / RFU NR4A2 (11747474_a_at) / Fold change /veh NR4A2 (11747474_a_at) / RFU ABCC12 (11746883_a_at) / Fold change /veh ABCC12 (11746883_a_at) / RFU TMEM136 (11760407_x_at) / Fold change /veh TMEM136 (11760407_x_at) / RFU CLDN22 /// WWC2 (11732394_at) / Fold change /veh CLDN22 /// WWC2 (11732394_at) / RFU HLA-DPB1 (11760878_x_at) / Fold change /veh HLA-DPB1 (11760878_x_at) / RFU SPINT1 (11716480_a_at) / Fold change /veh SPINT1 (11716480_a_at) / RFU GAP43 (11754022_s_at) / Fold change /veh GAP43 (11754022_s_at) / RFU A4GNT (11735810_at) / Fold change /veh A4GNT (11735810_at) / RFU PRB3 (11715151_x_at) / Fold change /veh PRB3 (11715151_x_at) / RFU TUBB4B (11761932_at) / Fold change /veh TUBB4B (11761932_at) / RFU CAPN14 (11732068_a_at) / Fold change /veh CAPN14 (11732068_a_at) / RFU TMCC2 (11721928_a_at) / Fold change /veh TMCC2 (11721928_a_at) / RFU IRGQ (11745062_a_at) / Fold change /veh IRGQ (11745062_a_at) / RFU FAM174B (11720279_a_at) / Fold change /veh FAM174B (11720279_a_at) / RFU TMPRSS4 (11748680_a_at) / Fold change /veh TMPRSS4 (11748680_a_at) / RFU FAM212B (11763350_a_at) / Fold change /veh FAM212B (11763350_a_at) / RFU PLEKHG5 (11743358_a_at) / Fold change /veh PLEKHG5 (11743358_a_at) / RFU ZSCAN30 (11745921_a_at) / Fold change /veh ZSCAN30 (11745921_a_at) / RFU CMKLR1 (11741424_a_at) / Fold change /veh CMKLR1 (11741424_a_at) / RFU LOC101060620 /// MAPK8IP1 (11723275_at) / Fold change /veh LOC101060620 /// MAPK8IP1 (11723275_at) / RFU SPTSSB (11747773_x_at) / Fold change /veh SPTSSB (11747773_x_at) / RFU PRSS12 (11739890_at) / Fold change /veh PRSS12 (11739890_at) / RFU BIN1 (11741810_x_at) / Fold change /veh BIN1 (11741810_x_at) / RFU WNT11 (11732464_a_at) / Fold change /veh WNT11 (11732464_a_at) / RFU C10orf10 (11716521_a_at) / Fold change /veh C10orf10 (11716521_a_at) / RFU C5orf56 (11738089_at) / Fold change /veh C5orf56 (11738089_at) / RFU CYB561 (11721691_x_at) / Fold change /veh CYB561 (11721691_x_at) / RFU ANKRD19P (11752326_a_at) / Fold change /veh ANKRD19P (11752326_a_at) / RFU OR2T12 /// OR2T33 /// OR2T8 (11738714_s_at) / Fold change /veh OR2T12 /// OR2T33 /// OR2T8 (11738714_s_at) / RFU VCAN (11748164_a_at) / Fold change /veh VCAN (11748164_a_at) / RFU JSRP1 (11732532_at) / Fold change /veh JSRP1 (11732532_at) / RFU KRTAP10-11 (11738290_x_at) / Fold change /veh KRTAP10-11 (11738290_x_at) / RFU MYO3A (11730013_a_at) / Fold change /veh MYO3A (11730013_a_at) / RFU EBF3 (11725865_a_at) / Fold change /veh EBF3 (11725865_a_at) / RFU CAMK2N1 (11719241_x_at) / Fold change /veh CAMK2N1 (11719241_x_at) / RFU C5orf56 (11738088_a_at) / Fold change /veh C5orf56 (11738088_a_at) / RFU OLFML3 (11715873_a_at) / Fold change /veh OLFML3 (11715873_a_at) / RFU LOC100653217 /// NTM (11731650_a_at) / Fold change /veh LOC100653217 /// NTM (11731650_a_at) / RFU MAPK11 (11762145_a_at) / Fold change /veh MAPK11 (11762145_a_at) / RFU FIZ1 (11724087_x_at) / Fold change /veh FIZ1 (11724087_x_at) / RFU OASL (11726364_x_at) / Fold change /veh OASL (11726364_x_at) / RFU SOX15 (11748057_x_at) / Fold change /veh SOX15 (11748057_x_at) / RFU CD79A (11719716_a_at) / Fold change /veh CD79A (11719716_a_at) / RFU HIST1H1D (11736915_at) / Fold change /veh HIST1H1D (11736915_at) / RFU CASKIN2 (11723855_a_at) / Fold change /veh CASKIN2 (11723855_a_at) / RFU LOC730098 (11760151_x_at) / Fold change /veh LOC730098 (11760151_x_at) / RFU OR4N2 (11742367_at) / Fold change /veh OR4N2 (11742367_at) / RFU PRRT2 (11749266_a_at) / Fold change /veh PRRT2 (11749266_a_at) / RFU SNX32 (11753110_a_at) / Fold change /veh SNX32 (11753110_a_at) / RFU CDHR5 (11726645_a_at) / Fold change /veh CDHR5 (11726645_a_at) / RFU RCAN1 (11760418_a_at) / Fold change /veh RCAN1 (11760418_a_at) / RFU FAM167A (11723789_a_at) / Fold change /veh FAM167A (11723789_a_at) / RFU FAM26E (11764081_at) / Fold change /veh FAM26E (11764081_at) / RFU ISYNA1 (11749810_s_at) / Fold change /veh ISYNA1 (11749810_s_at) / RFU ACY1 (11761880_at) / Fold change /veh ACY1 (11761880_at) / RFU 11764098_at / Fold change /veh 11764098_at / RFU SAMD14 (11745864_x_at) / Fold change /veh SAMD14 (11745864_x_at) / RFU NPB (11741838_a_at) / Fold change /veh NPB (11741838_a_at) / RFU TMPRSS6 (11731388_a_at) / Fold change /veh TMPRSS6 (11731388_a_at) / RFU KRTAP10-2 (11738614_at) / Fold change /veh KRTAP10-2 (11738614_at) / RFU ARHGAP8 /// PRR5-ARHGAP8 (11727945_x_at) / Fold change /veh ARHGAP8 /// PRR5-ARHGAP8 (11727945_x_at) / RFU KRTAP5-7 /// NADSYN1 (11734609_at) / Fold change /veh KRTAP5-7 /// NADSYN1 (11734609_at) / RFU RASL12 (11751679_a_at) / Fold change /veh RASL12 (11751679_a_at) / RFU CDKN2B (11736163_a_at) / Fold change /veh CDKN2B (11736163_a_at) / RFU PRF1 (11729649_at) / Fold change /veh PRF1 (11729649_at) / RFU, ZNF638 /// ZNF638-IT1 / Fold change vs veh, ZNF638 /// ZNF638-IT1 / RFU, PANK3 / Fold change vs veh, PANK3 / RFU, SH3YL1 / Fold change vs veh, SH3YL1 / RFU, ZEB2 / Fold change vs veh, ZEB2 / RFU, NRIP1 / Fold change vs veh, NRIP1 / RFU, PTTG1IP / Fold change vs veh, PTTG1IP / RFU, CAPN2 / Fold change vs veh, CAPN2 / RFU, MED14 / Fold change vs veh, MED14 / RFU, SNORA58 / Fold change vs veh, SNORA58 / RFU, C1orf63 / Fold change vs veh, C1orf63 / RFU, LRRFIP1 / Fold change vs veh, LRRFIP1 / RFU, NDUFAF7 / Fold change vs veh, NDUFAF7 / RFU, SLC12A2 / Fold change vs veh, SLC12A2 / RFU, IBTK / Fold change vs veh, IBTK / RFU, ESF1 / Fold change vs veh, ESF1 / Fold change vs veh, TMEM50B / RFU, TAOK1 / Fold change vs veh, TAOK1 / RFU, ACBD3 / Fold change vs veh, ACBD3 / RFU, TMA16 / Fold change vs veh, TMA16 / RFU, RWDD3 / Fold change vs veh, RWDD3 / RFU, BCAT1 / Fold change vs veh, BCAT1 / RFU, EDEM3 / Fold change vs veh, EDEM3 / RFU, TMEM33 / Fold change vs veh, TMEM33 / RFU, WDR75 / Fold change vs veh, WDR75 / RFU, AHCTF1 / Fold change vs veh, AHCTF1 / RFU, TFRC / Fold change vs veh, TFRC / RFU, ZDHHC17 / Fold change vs veh, ZDHHC17 / RFU, NOM1 / Fold change vs veh, NOM1 / RFU, ARL8B / Fold change vs veh, ARL8B / RFU, ZBTB11 / Fold change vs veh, ZBTB11 / RFU, TAMM41 / Fold change vs veh, TAMM41 / RFU, KIAA1704 /// LOC100996395 / Fold change vs veh, KIAA1704 /// LOC100996395 / RFU, ING1 / Fold change vs veh, ING1 / RFU, TRMT61B / Fold change vs veh, TRMT61B / RFU, FUBP3 / Fold change vs veh, FUBP3 / RFU, TP53 / Fold change vs veh, TP53 / RFU, TNKS2 / Fold change vs veh, TNKS2 / RFU, ZFP14 / Fold change vs veh, ZFP14 / RFU, ACTR2 / Fold change vs veh, ACTR2 / RFU, PPP3R1 / Fold change vs veh, PPP3R1 / RFU, PIK3R1 / Fold change vs veh, PIK3R1 / RFU, HNRNPA1 / Fold change vs veh, HNRNPA1 / RFU, RNF170 / Fold change vs veh, RNF170 / RFU, ZNF28 / Fold change vs veh, ZNF28 / RFU, RNGTT / Fold change vs veh, RNGTT / RFU, OGT / Fold change vs veh, OGT / RFU, BRD1 / Fold change vs veh, BRD1 / RFU, MARS / Fold change vs veh, MARS / RFU, ZNF655 / Fold change vs veh, ZNF655 / RFU, FAHD1 / Fold change vs veh, FAHD1 / RFU, BDP1 / Fold change vs veh, BDP1 / RFU, LRRCC1 / Fold change vs veh, LRRCC1 / RFU, ARID1A / Fold change vs veh, ARID1A / RFU, ZNF146 / Fold change vs veh, ZNF146 / RFU, ZNF330 / Fold change vs veh, ZNF330 / RFU, GPN3 / Fold change vs veh, GPN3 / RFU, C9orf123 / Fold change vs veh, C9orf123 / RFU, N4BP2L2 / Fold change vs veh, N4BP2L2 / RFU, ARFIP1 / Fold change vs veh, ARFIP1 / RFU, FAM179B / Fold change vs veh, FAM179B / RFU, BCL10 / Fold change vs veh, BCL10 / RFU, UHRF1BP1L / Fold change vs veh, UHRF1BP1L / RFU, BET1 / Fold change vs veh, BET1 / RFU, CNOT2 / Fold change vs veh, CNOT2 / RFU, ZNF268 / Fold change vs veh, ZNF268 / Fold change vs veh, ZNF507 / RFU, DGCR2 / Fold change vs veh, DGCR2 / RFU, WDSUB1 / Fold change vs veh, WDSUB1 / Fold change vs veh, HSP90B1 /// MIR3652 / RFU, ADSS / Fold change vs veh, ADSS / RFU, GK / Fold change vs veh, GK / RFU, ZNF148 / Fold change vs veh, ZNF148 / RFU, TAF9 / Fold change vs veh, TAF9 / RFU, SLC1A5 / Fold change vs veh, SLC1A5 / RFU, SLMO2 / Fold change vs veh, SLMO2 / RFU, ABCC4 / Fold change vs veh, ABCC4 / RFU, LOC101060439 /// RAP1B / Fold change vs veh, LOC101060439 /// RAP1B / RFU, RFX7 / Fold change vs veh, RFX7 / RFU, GTPBP10 / Fold change vs veh, GTPBP10 / RFU, CNEP1R1 / Fold change vs veh, CNEP1R1 / RFU, BIVM-ERCC5 /// ERCC5 / Fold change vs veh, BIVM-ERCC5 /// ERCC5 / RFU, ILF3 / Fold change vs veh, ILF3 / RFU 11762660_at / Fold change /veh 11762660_at / RFU VCAN (11757783_s_at) / Fold change /veh VCAN (11757783_s_at) / RFU DDX43 (11728927_at) / Fold change /veh DDX43 (11728927_at) / RFU KRT8 (11758188_x_at) / Fold change /veh KRT8 (11758188_x_at) / RFU NKD1 (11759106_at) / Fold change /veh NKD1 (11759106_at) / RFU SRD5A1 (11742802_a_at) / Fold change /veh SRD5A1 (11742802_a_at) / RFU TPSAB1 /// TPSB2 (11721975_s_at) / Fold change /veh TPSAB1 /// TPSB2 (11721975_s_at) / RFU GSTM3 (11746129_a_at) / Fold change /veh GSTM3 (11746129_a_at) / RFU IL23R (11737362_x_at) / Fold change /veh IL23R (11737362_x_at) / RFU TMEM51 (11727254_a_at) / Fold change /veh TMEM51 (11727254_a_at) / RFU PIWIL2 (11732686_x_at) / Fold change /veh PIWIL2 (11732686_x_at) / RFU ORM1 (11744905_x_at) / Fold change /veh ORM1 (11744905_x_at) / RFU CCDC152 (11743942_at) / Fold change /veh CCDC152 (11743942_at) / RFU ECM1 (11717891_a_at) / Fold change /veh ECM1 (11717891_a_at) / RFU IL23R (11748794_a_at) / Fold change /veh IL23R (11748794_a_at) / RFU TNFAIP8L3 (11732012_x_at) / Fold change /veh TNFAIP8L3 (11732012_x_at) / RFU MBOAT4 (11741988_at) / Fold change /veh MBOAT4 (11741988_at) / RFU 11764193_at / Fold change /veh 11764193_at / RFU TMEM53 (11763286_at) / Fold change /veh TMEM53 (11763286_at) / RFU MAGEB2 (11727129_at) / Fold change /veh MAGEB2 (11727129_at) / RFU TMEM200A (11744735_a_at) / Fold change /veh TMEM200A (11744735_a_at) / RFU CCDC152 (11751479_a_at) / Fold change /veh CCDC152 (11751479_a_at) / RFU FAM211A (11726209_a_at) / Fold change /veh FAM211A (11726209_a_at) / RFU RGS16 (11746705_a_at) / Fold change /veh RGS16 (11746705_a_at) / RFU VCAN (11755009_s_at) / Fold change /veh VCAN (11755009_s_at) / RFU RHOB (11743442_s_at) / Fold change /veh RHOB (11743442_s_at) / RFU RGS16 (11720943_a_at) / Fold change /veh RGS16 (11720943_a_at) / RFU RGS16 (11720944_at) / Fold change /veh RGS16 (11720944_at) / RFU, VPS4B / Fold change vs veh, VPS4B / RFU, CREB1 / Fold change vs veh, CREB1 / RFU, DNAJC13 / Fold change vs veh, DNAJC13 / RFU, GNAQ / Fold change vs veh, GNAQ / RFU, CDK5R1 / Fold change vs veh, CDK5R1 / RFU, ZRANB3 / Fold change vs veh, ZRANB3 / RFU, CUL4A / Fold change vs veh, CUL4A / RFU, CCNY / Fold change vs veh, CCNY / RFU, UFL1 / Fold change vs veh, UFL1 / RFU, COG3 / Fold change vs veh, COG3 / RFU, DIAPH2 / Fold change vs veh, DIAPH2 / RFU, SKA2 / Fold change vs veh, SKA2 / RFU, AFF3 / Fold change vs veh, AFF3 / RFU, LMF1 / Fold change vs veh, LMF1 / RFU, IPO11 / Fold change vs veh, IPO11 / RFU, DFFB / Fold change vs veh, DFFB / RFU, FOXP1 / Fold change vs veh, FOXP1 / RFU, CARD8 / Fold change vs veh, CARD8 / RFU, STRN3 / Fold change vs veh, STRN3 / RFU, ADK / Fold change vs veh, ADK / RFU, RASSF2 / Fold change vs veh, RASSF2 / RFU, WIPF1 / Fold change vs veh, WIPF1 / RFU, LARP1B / Fold change vs veh, LARP1B / RFU, RASA1 / Fold change vs veh, RASA1 / RFU, RB1 / Fold change vs veh, RB1 / RFU, PPFIA1 / Fold change vs veh, PPFIA1 / RFU, MAT2A / Fold change vs veh, MAT2A / RFU, CCT5 / Fold change vs veh, CCT5 / RFU, WDR92 / Fold change vs veh, WDR92 / RFU, CUX1 / Fold change vs veh, CUX1 / RFU, TTC7A / Fold change vs veh, TTC7A / RFU, TMEM135 / Fold change vs veh, TMEM135 / RFU, DEPTOR / Fold change vs veh, DEPTOR / RFU, CPM / Fold change vs veh, CPM / RFU, DNAJB6 / Fold change vs veh, DNAJB6 / RFU, CACNA2D3 / Fold change vs veh, CACNA2D3 / RFU, DTX4 / Fold change vs veh, DTX4 / RFU, TFCP2 / Fold change vs veh, TFCP2 / RFU, GMCL1 /// GMCL1P1 / Fold change vs veh, GMCL1 /// GMCL1P1 / RFU, AEBP2 / Fold change vs veh, AEBP2 / RFU, SNHG1 /// SNORD22 /// SNORD25 /// SNORD26 /// SNORD27 /// SNORD28 /// SNORD29 /// SNORD31 / Fold change vs veh, SNHG1 /// SNORD22 /// SNORD25 /// SNORD26 /// SNORD27 /// SNORD28 /// SNORD29 /// SNORD31 / Fold change (Aza/veh), C12orf56 (ProbeSet 11735607_a_at) / Fold change (ACY-1035/veh), C12orf56 (ProbeSet 11735607_a_at) / Fold change (Aza/veh), FGFR1OP (ProbeSet 11751329_s_at) / Fold change (ACY-1035/veh), FGFR1OP (ProbeSet 11751329_s_at) / Fold change (Aza/veh), VPS36 (ProbeSet 11739960_a_at) / Fold change (ACY-1035/veh), VPS36 (ProbeSet 11739960_a_at) / RFU SYPL1 (11715823_x_at) / Fold change /veh SYPL1 (11715823_x_at) / RFU IGFBP7 (11715501_s_at) / Fold change /veh IGFBP7 (11715501_s_at) / RFU REEP3 (11722064_at) / Fold change /veh REEP3 (11722064_at) / RFU IGLL1 (11728026_x_at) / Fold change /veh IGLL1 (11728026_x_at): dose or concentration left out as unconfirmed
Details: ProbeSet 11718977_a_at; LIST B

## Nc1ncn([C@@H]2O[C@H](CO)[C@@H](O)[C@H]2O)c(=O)n1 [azacitidine]
  Fold change vs veh, CAPN2: 0.92
